Data taken from PubChem BioAssay AID1963868 (Molecular Pharmacology Branch, DTP, NCI, 2024).
pIC50: −log10 of the molar value.

System: KRAS PDC tumor spheroids (HUVEC+MSC), viability
Experiment: Anticancer human tumor 254851-301-R-J1-PDC patient-derived colon carcinoma cell line growth inhibition [KRAS2]
Conditions: for pIC50: curve of first compound; for viability, T/C: stronger effect = lower value
Source text: Multicellular complex tumor spheroid response to RAS pathway inhibitors in combination with a targeted agents in patient-derived cell lines with oncogenic KRAS variants from multiple cancer types
A high-throughput screen of multi-cell type tumor spheroids was designed to identify active combinations of targeted small molecules and KRAS pathway inhibitors. Complex spheroids include a stromal component modeled by human endothelial cells (HUVEC) and fibroblasts modeled by human mesenchymal stem cells (MSCs). The concentration ranges selected for each drug and investigational agent were based upon clinically achievable concentrations if the clinical Cmax of the agent was known.
Compounds. The drugs and investigational agents: BI-3406 (NSC825286), BAY-293 (NSC824723), batoprotafib (TNO155; NSC825523), sotorasib (AMG 510; NSC818433), MRTX1257 (NSC819558), elimusertib (BAY 1895344; NSC800525), molibresib (GSK525762; NSC774829), temuterkib (LY3214996; NSC803410), venetoclax (NSC766270), alisertib (NSC759677), olaparib (NSC753686), talazoparib (NSC767125), erdafitinib (NSC781556), ipatasertib (NSC767898), cabozantinib (NSC761068), nintedanib (NSC756659), abemaciclib (NSC768073), docetaxel (NSC628503), trametinib (NSC758246), and sapanisertib (NSC764658) were obtained from the National Cancer Institute (NCI) Developmental Therapeutics Program Chemical Repository. The FDA-approved anticancer drug set is available from the Developmental Therapeutics Program. […] The stock solutions were prepared in dimethyl sulfoxide (DMSO, Sigma-Aldrich, St. Louis, MO, cat. D2650) at 800-fold the tested concentration and stored at -70 degrees C prior to their use. All drugs and investigational agents were tested over a range starting from a high concentration at or near the clinical Cmax and decreasing in half-log increments. If the clinical Cmax for an agent had not been determined, the highest concentration tested was 10 microM.
Cell Culture. All cells were maintained in an incubator at 37 degrees C and 5% CO2 with 95% humidity. The PDC lines were cultured according to standard operating procedures established by the NCI PDMR (https://pdmr.cancer.gov/sops/default.htm). Briefly, all PDCs were thawed and cultured in Matrigel-coated flasks prepared with a working solution of 1X Ham's F-12 nutrient mix, without supplementation (Invitrogen, Waltham, MA, cat. 11765054), 100 U/mL penicillin-streptomycin (Invitrogen, cat. 15140122), and 2.5% Matrigel (Corning Inc., Corning, NY, cat. 354248) for the first three passages. All PDCs were cultured in complete DMEM/F-12 media containing advanced DMEM/F-12 (Invitrogen, cat. 12634028), 4.9% defined fetal bovine serum, heat inactivated (HyClone Laboratories Inc., Logan, UT, cat. SH30070.03HI), 389 ng/mL hydrocortisone (Sigma-Aldrich, cat. H4001), 9.7 ng/mL human EGF recombinant protein (Invitrogen, cat. PHG0313), 23.4 microg/mL adenine (Sigma-Aldrich, cat. A2786), 97.3 U/mL penicillin-streptomycin (Invitrogen, cat. 15140122), 1.9 mM L-glutamine (Invitrogen, cat. 25030081), and 9.7 microM Y-27632 dihydrochloride (Tocris Bioscience, Bristol, United Kingdom, cat. 1254). The PDCs were cultured in complete DMEM/F12 media without 9.7 microM Y-27632 dihydrochloride for at least two passages prior to the screen. The established cell line HOP-62 was cultured in RPMI 1640 medium, HEPES (Invitrogen, cat. 22400105) with 10% defined fetal bovine serum (HyClone Laboratories Inc., cat. SH30070.03) and 2 mM L-glutamine (Invitrogen, cat. 25030081). The pooled donor HUVEC were cultured in endothelial cell growth medium 2 (PromoCell, Heidelberg, Germany, cat. C-22011) and the hMSC were cultured in mesenchymal stem cell growth medium 2 (PromoCell, cat. C-28009). For all experiments, HUVEC and hMSC were used at passages </=5, while the malignant cell lines were used at passages </=15. […]

[1] = second compound 0.1 µM, first compound 0.0316 µM
[2] = second compound 0.316 µM, first compound 0.0316 µM
[3] = second compound 1 µM, first compound 0.0316 µM
[4] = second compound 3.16 µM, first compound 0.0316 µM
[5] = second compound 10 µM, first compound 0.0316 µM
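Also: spheroids exposed to compounds for seven days before readout.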
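For viability, T/C in this document: 100% = DMSO vehicle control luminescence of the spheroids.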

## CC(=O)Nc1cccc(-n2c(=O)n(C3CC3)c(=O)c3c(Nc4ccc(I)cc4F)n(C)c(=O)c(C)c32)c1 + C=CC(=O)N1CCN(c2nc(=O)n(-c3c(C)ccnc3C(C)C)c3nc(-c4c(O)cccc4F)c(F)cc23)C(C)C1
Second compound 0.1 µM
  pIC50: 8.20
Second compound 0.316 µM
  pIC50: 8.29
Second compound 1 µM
  pIC50: 8.19
Second compound 3.16 µM
  pIC50: 8.19
Second compound 10 µM
  pIC50: 8.29
Second compound 0.1 µM, first compound 0.0001 µM
  viability, T/C: 104%
Second compound 0.1 µM, first compound 0.000316 µM
  viability, T/C: 105%
Second compound 0.1 µM, first compound 0.001 µM
  viability, T/C: 89.5%
Second compound 0.1 µM, first compound 0.00316 µM
  viability, T/C: 84.4%
Second compound 0.1 µM, first compound 0.01 µM
  viability, T/C: 27.2%
[1]
  viability, T/C: 3.31%
Second compound 0.316 µM, first compound 0.0001 µM
  viability, T/C: 102%
Second compound 0.316 µM, first compound 0.000316 µM
  viability, T/C: 103%
Second compound 0.316 µM, first compound 0.001 µM
  viability, T/C: 87.9%
Second compound 0.316 µM, first compound 0.00316 µM
  viability, T/C: 77.4%
Second compound 0.316 µM, first compound 0.01 µM
  viability, T/C: 13%
[2]
  viability, T/C: 3.29%
Second compound 1 µM, first compound 0.0001 µM
  viability, T/C: 102%
Second compound 1 µM, first compound 0.000316 µM
  viability, T/C: 96.6%
Second compound 1 µM, first compound 0.001 µM
  viability, T/C: 93.9%
Second compound 1 µM, first compound 0.00316 µM
  viability, T/C: 74.3%
Second compound 1 µM, first compound 0.01 µM
  viability, T/C: 35.5%
[3]
  viability, T/C: 3.32%
Second compound 3.16 µM, first compound 0.0001 µM
  viability, T/C: 98.5%
Second compound 3.16 µM, first compound 0.000316 µM
  viability, T/C: 99.4%
Second compound 3.16 µM, first compound 0.001 µM
  viability, T/C: 85.1%
Second compound 3.16 µM, first compound 0.00316 µM
  viability, T/C: 77%
Second compound 3.16 µM, first compound 0.01 µM
  viability, T/C: 34%
[4]
  viability, T/C: 3.35%
Second compound 10 µM, first compound 0.0001 µM
  viability, T/C: 105%
Second compound 10 µM, first compound 0.000316 µM
  viability, T/C: 105%
Second compound 10 µM, first compound 0.001 µM
  viability, T/C: 96.9%
Second compound 10 µM, first compound 0.00316 µM
  viability, T/C: 75%
Second compound 10 µM, first compound 0.01 µM
  viability, T/C: 14.6%
[5]
  viability, T/C: 3.11%

## COc1cc(Nc2ncc3c(n2)-c2ccc(Cl)cc2C(c2c(F)cccc2OC)=NC3)ccc1C(=O)O + C=CC(=O)N1CCN(c2nc(=O)n(-c3c(C)ccnc3C(C)C)c3nc(-c4c(O)cccc4F)c(F)cc23)C(C)C1
Second compound 0.1 µM
  pIC50: 7.05
Second compound 0.316 µM
  pIC50: 6.97
Second compound 1 µM
  pIC50: 7.23
Second compound 3.16 µM
  pIC50: 6.96
Second compound 10 µM
  pIC50: 6.91
[1]
  viability, T/C: 86%
Second compound 0.1 µM, first compound 0.1 µM
  viability, T/C: 40%
Second compound 0.1 µM, first compound 0.316 µM
  viability, T/C: 32.7%
Second compound 0.1 µM, first compound 1 µM
  viability, T/C: 28.6%
Second compound 0.1 µM, first compound 3.16 µM
  viability, T/C: 18.9%
Second compound 0.1 µM, first compound 10 µM
  viability, T/C: 9.83%
[2]
  viability, T/C: 86.7%
Second compound 0.316 µM, first compound 0.1 µM
  viability, T/C: 45.4%
Second compound 0.316 µM, first compound 0.316 µM
  viability, T/C: 35%
Second compound 0.316 µM, first compound 1 µM
  viability, T/C: 28.8%
Second compound 0.316 µM, first compound 3.16 µM
  viability, T/C: 19.5%
Second compound 0.316 µM, first compound 10 µM
  viability, T/C: 10.7%
[3]
  viability, T/C: 56.4%
Second compound 1 µM, first compound 0.1 µM
  viability, T/C: 43.1%
Second compound 1 µM, first compound 0.316 µM
  viability, T/C: 36.6%
Second compound 1 µM, first compound 1 µM
  viability, T/C: 29.3%
Second compound 1 µM, first compound 3.16 µM
  viability, T/C: 21.4%
Second compound 1 µM, first compound 10 µM
  viability, T/C: 12.3%
[4]
  viability, T/C: 77.6%
Second compound 3.16 µM, first compound 0.1 µM
  viability, T/C: 45%
Second compound 3.16 µM, first compound 0.316 µM
  viability, T/C: 39.1%
Second compound 3.16 µM, first compound 1 µM
  viability, T/C: 29.1%
Second compound 3.16 µM, first compound 3.16 µM
  viability, T/C: 19.2%
Second compound 3.16 µM, first compound 10 µM
  viability, T/C: 13.6%
[5]
  viability, T/C: 93.3%
Second compound 10 µM, first compound 0.1 µM
  viability, T/C: 47.6%
Second compound 10 µM, first compound 0.316 µM
  viability, T/C: 38.4%
Second compound 10 µM, first compound 1 µM
  viability, T/C: 32.4%
Second compound 10 µM, first compound 3.16 µM
  viability, T/C: 22.4%
Second compound 10 µM, first compound 10 µM
  viability, T/C: 17.5%
